Legend:
[1] = test system: patients with pulmonary hypertension associated with sarcoidosis (PH-SARC); experiment: Acute iNO dose escalation study, right heart catheterization hemodynamics (Phase 2, Part 1); format: in vivo, human; conditions: for PVR change from baseline: pulsed, 10 min, baseline median 329.4; for PVR change from baseline / CO percent change from baseline / PCWP percent change from baseline / PVR percent change from baseline / mPAP percent change from baseline / CO change from baseline / PCWP change from baseline / mPAP change from baseline: median (IQR); for CO change from baseline: baseline median 5.9; for PCWP change from baseline: baseline median 13.5; for mPAP change from baseline: baseline median 37.2
Excerpt: Patients with sarcoidosis may develop pulmonary hypertension (PH) which is associated with an impaired quality of life and limitations on activities of daily living. The Phase 2 trial, was designed to determine the safety and clinical efficacy of pulsed iNO, a potent and well-established vasodilator, on sarcoidosis-associated with PH patients, as well as to evaluate the safe and effective dose of iNO in subjects on long term oxygen therapy (LTOT) with possible or definite pulmonary hypertension associated with sarcoidosis.
Sarcoidosis patients with PH on prior right heart catherization (RHC) or on echocardiography were enrolled in a two-part open label study. Patients underwent RHC, to establish baseline hemodynamics including mean pulmonary arterial pressure (mPAP), cardiac output (CO), pulmonary wedge pressure (PCWP) with derivation of pulmonary vascular resistance (PVR).
(§1) Patients were administered acute escalating doses of pulsatile iNO via an INOpulse device starting at 30 mcg/kg ideal body weight/hr (iNO30) and increasing up to 125 mcg/kg ideal body weight/hr (iNO125) to assess the impact of each dose level on hemodynamic parameters. Patients were treated with iNO for 10 minutes per dose with a 10-minute washout between doses.
Each dose level was followed by a washout period. All hemodynamic wave forms were reviewed by a blinded hemodynamic core lab for determination of end-exhalation PAP and PCWP. After the acute vasodilator study, subjects were eligible to participate in a long-term open label extension study at the dose of iNO found to be most beneficial by the RHC measurements, as determined by the investigator.
(§2) During the Treatment Visit of Part 1 of the study, subjects were admitted to the cardiac catheterization suite/ICU/CCU and a Swan Ganz Catheter was inserted, and subjects were monitored during acute exposure to iNO at 30, 45, 75, 125 mcg/kg IBW/hr. Hemodynamic changes were monitored during this part of the study. The primary endpoint for Part 1 of the study was to assess the change in mean pulmonary artery pressure (mPAP), pulmonary capillary wedge pressure (PCWP), cardiac output (CO) and pulmonary vascular resistance (PVR) on iNO 30, 45, 75, 125 mcg/kg IBW/hr compared to baseline. The Safety Endpoint includes incidence and severity of treatment emergent adverse events (AEs), including those related to device deficiency, symptoms that may be due to rebound associated with acute withdrawal of iNO: systemic arterial oxygen desaturation, hypoxemia, bradycardia, tachycardia, systemic hypotension, shortness of breath, near-syncope, and syncope, and change in oxygen saturation and vital signs.
The changes in hemodynamics were determined for absolute change (as shown in FIGS. 2A-2D) and percent change (as shown in FIGS. 2E-2H) from baseline in PVR, mPAP, CO and PCWP. The analysis depicted illustrates the change from baseline (box & whisker plot provides median, IQR, and min/max). Statistical analysis based on Wilcoxon […] was assessed between baseline and each dose as well as each dose and each prior dose and no correction was conducted for multiplicity.

[2] = test system: patients with pulmonary hypertension associated with sarcoidosis (PH-SARC); experiment: Safety and tolerability in the acute iNO dose escalation study; format: in vivo, human
Protocol: as §1, §2

[N]=O [iNO, nitric oxide]
median mPAP reduction from baseline across the doses ([1]; across the doses of iNO30 to iNO125, baseline median mPAP 37.2 mmHg): 6-10%
patients demonstrating decreases in mPAP and PVR ([1]; across the doses of iNO from iNO30 to iNO125, blinded core lab, 8 patients): all 8 patients demonstrated decreases in mPAP and PVR
PCWP across all doses ([1]; all doses iNO30 to iNO125): remained stable
cardiac output (CO) across all doses ([1]; all doses iNO30 to iNO125): remained stable
PVR change from baseline ([1]; iNO30 (30 mcg/kg IBW/hr)): −19.2 (39.0) dyne*sec*cm-5
CO percent change from baseline ([1]; iNO30 (30 mcg/kg IBW/hr)): −2.5% (11.2)
PCWP percent change from baseline ([1]; iNO30 (30 mcg/kg IBW/hr)): −4.1% (29.1%)
PVR percent change from baseline ([1]; iNO30 (30 mcg/kg IBW/hr)): −7.0% (10.6%)
mPAP percent change from baseline ([1]; iNO30 (30 mcg/kg IBW/hr)): −7.1% (10.0%)
CO change from baseline ([1]; iNO30 (30 mcg/kg IBW/hr)): −0.1 (0.6) L/min
PCWP change from baseline ([1]; iNO30 (30 mcg/kg IBW/hr)): −1.0 (4.3) mmHg
mPAP change from baseline ([1]; iNO30 (30 mcg/kg IBW/hr)): −2.7 (2.8) mmHg
PVR change from baseline ([1]; iNO45 (45 mcg/kg IBW/hr)): −48.4 (84.6) dyne*sec*cm-5
CO percent change from baseline ([1]; iNO45 (45 mcg/kg IBW/hr)): 1.0% (6.5%)
PCWP percent change from baseline ([1]; iNO45 (45 mcg/kg IBW/hr)): 0.0% (20.5%)
mPAP percent change from baseline ([1]; iNO45 (45 mcg/kg IBW/hr)): −10.6% (15.8%)
CO change from baseline ([1]; iNO45 (45 mcg/kg IBW/hr)): 0.0 (0.3) L/min
PCWP change from baseline ([1]; iNO45 (45 mcg/kg IBW/hr)): 0.0 (2.5) mmHg
mPAP change from baseline ([1]; iNO45 (45 mcg/kg IBW/hr)): −4.0 (5.2) mmHg
median decrease of PVR from baseline ([1]; iNO45 dose, range −54% to +22%, baseline median PVR 329 dyne*sec*cm-5): 20%
PVR change from baseline ([1]; iNO75 (75 mcg/kg IBW/hr)): −68.0 (92.7) dyne*sec*cm-5
CO percent change from baseline ([1]; iNO75 (75 mcg/kg IBW/hr)): 0.1% (6.1%)
PCWP percent change from baseline ([1]; iNO75 (75 mcg/kg IBW/hr)): 10.6% (29.5%)
PVR percent change from baseline ([1]; iNO75 (75 mcg/kg IBW/hr)): −15.3% (37.7%)
mPAP percent change from baseline ([1]; iNO75 (75 mcg/kg IBW/hr)): −6.3% (13.2%)
CO change from baseline ([1]; iNO75 (75 mcg/kg IBW/hr)): 0.0 (0.4) L/min
PCWP change from baseline ([1]; iNO75 (75 mcg/kg IBW/hr)): 1.5 (4.3) mmHg
mPAP change from baseline ([1]; iNO75 (75 mcg/kg IBW/hr)): −2.3 (3.9) mmHg
PVR change from baseline ([1]; iNO125 (125 mcg/kg IBW/hr)): −85.8 (67.1) dyne*sec*cm-5
CO percent change from baseline ([1]; iNO125 (125 mcg/kg IBW/hr)): 4.2% (14.6%)
PCWP percent change from baseline ([1]; iNO125 (125 mcg/kg IBW/hr)): 0.0% (30.7%)
PVR percent change from baseline ([1]; iNO125 (125 mcg/kg IBW/hr)): −28.7% (20.8%)
mPAP percent change from baseline ([1]; iNO125 (125 mcg/kg IBW/hr)): −6.4% (11.0%)
CO change from baseline ([1]; iNO125 (125 mcg/kg IBW/hr)): 0.2 (0.8) L/min
PCWP change from baseline ([1]; iNO125 (125 mcg/kg IBW/hr)): 0.0 (4.0) mmHg
mPAP change from baseline ([1]; iNO125 (125 mcg/kg IBW/hr)): −3.0 (3.5) mmHg
median decrease of PVR from baseline ([1]; iNO125 dose, range −43% to −5%, p=0.02 vs. baseline and prior dose): 29%
tolerability ([2]; across all the doses iNO30 to iNO125): well-tolerated
adverse events or serious adverse events related to iNO ([2]; acute doses iNO30 to iNO125, 8 patients): No adverse events or serious adverse events related to iNO were reported

— patent US20250302869A1, “USE OF INHALED NITRIC OXIDE (INO) FOR TREATING PATIENTS WITH PULMONARY HY[…] SARCOIDOSIS (PH-SARC)” (Mallinckrodt Pharmaceuticals Ireland Limited, priority 2022, published 2025)
